Measurements published in PMC9764201, “Half-calcified calmodulin promotes basal activity and inactivation of the L-type calcium channel CaV1.2” (The Journal of Biological Chemistry, 2022).
Ends that are not written are not given here.

Legend:
Ca2/CaM12’ = biological target: T1, Ca2/CaM12’ (Xenopus laevis, UniProt P0DP33, D21A/D23A/D25A/D57A/D59A/E32Q/E68Q/N61A); experiment: ITC of Ca2/CaM12’ binding to IQ peptides; settings: 27 °C; for n-value (stoichiometry) / ΔH: SD from three independent trials
T1 construct: made in house; host or cells: E. coli BL21(DE3) Codon Plus, pET11d

[1] = biological target: fluorescein-labeled CaV1.2 IQ peptide Y1657D (rat); experiment: fluorescence polarisation; fluorescein-labeled peptide (100 nM) titrated with apoCaM in Ca2+-free buffer: 20 mM Tris, pH 7.4, 100 mM KCl, 1 mM MgCl2, 2.0 mM EGTA

Molecule	binding to Ca2/CaM12’ compared to IQ^WT (Ca2/CaM12’)	n-value (stoichiometry) (Ca2/CaM12’)	ΔH (Ca2/CaM12’)	Kd [1]
CC[C@H](C)[C@H](NC(=O)[C@H](CC(C)C)NC(=O)[C@H](Cc1ccccc1)NC(=O)[C@@H](NC(=O)[C@H](C)NC(=O)[C@H](Cc1ccc(O)cc1)NC(=O)[C@H](Cc1ccccc1)NC(=O)[C@H](CCCCN)NC(=O)CNC(=O)[C@@H](NC(=O)[C@@H](N)[C@@H](C)O)C(C)C)[C@@H](C)O)C(=O)N[C@@H](CCC(N)=O)C(=O)N[C@@H](CCC(=O)O)C(=O)N[C@@H](Cc1ccc(O)cc1)C(=O)N[C@@H](CC(=O)O)C(=O)N[C@@H](CCCNC(=N)N)C(=O)N[C@@H](CCCCN)C(=O)N[C@@H](Cc1ccccc1)C(=O)N[C@@H](CCCCN)C(=O)N[C@@H](CCCCN)C(=O)N[C@@H](CCCNC(=N)N)C(=O)O [IQ^F1658D]	weaker binding	0.8 ± 0.5	-5.9 ± 0.7 kcal/mol	–
CC(C)C[C@H](NC(=O)[C@H](Cc1ccccc1)NC(=O)[C@@H](NC(=O)[C@H](C)NC(=O)[C@H](Cc1ccc(O)cc1)NC(=O)[C@H](Cc1ccccc1)NC(=O)[C@H](CCCCN)NC(=O)CNC(=O)[C@@H](NC(=O)[C@@H](N)[C@@H](C)O)C(C)C)[C@@H](C)O)C(=O)N[C@@H](C)C(=O)N[C@@H](CCC(N)=O)C(=O)N[C@@H](CCC(=O)O)C(=O)N[C@@H](Cc1ccc(O)cc1)C(=O)N[C@@H](Cc1ccccc1)C(=O)N[C@@H](CCCNC(=N)N)C(=O)N[C@@H](CCCCN)C(=O)N[C@@H](Cc1ccccc1)C(=O)N[C@@H](CCCCN)C(=O)N[C@@H](CCCCN)C(=O)N[C@@H](CCCNC(=N)N)C(=O)O [IQ^I1654A]	weaker binding	–	–	–
TVGKFYATFLIQEYARKFKKR [IQ^F1658A]	–	1.0 ± 0.25	-9.5 ± 0.2 kcal/mol	–
apoCaM (Ca2+-free calmodulin) (from UniProt P0DP33 1-149) (natural protein)	–	–	–	60 µM

The next lines start with results.

binding to Ca2/CaM12’ compared to IQ^WT (Ca2/CaM12’)	n-value (stoichiometry) (Ca2/CaM12’)	ΔH (Ca2/CaM12’)	Molecule	Kd [1]
weaker binding	0.88 ± 0.25	-9.7 ± 0.2 kcal/mol	CC[C@H](C)[C@H](NC(=O)[C@H](CC(C)C)NC(=O)[C@H](Cc1ccccc1)NC(=O)[C@@H](NC(=O)[C@H](C)NC(=O)[C@H](C)NC(=O)[C@H](Cc1ccccc1)NC(=O)[C@H](CCCCN)NC(=O)CNC(=O)[C@@H](NC(=O)[C@@H](N)[C@@H](C)O)C(C)C)[C@@H](C)O)C(=O)N[C@@H](CCC(N)=O)C(=O)N[C@@H](CCC(=O)O)C(=O)N[C@@H](Cc1ccc(O)cc1)C(=O)N[C@@H](Cc1ccccc1)C(=O)N[C@@H](CCCNC(=N)N)C(=O)N[C@@H](CCCCN)C(=O)N[C@@H](Cc1ccccc1)C(=O)N[C@@H](CCCCN)C(=O)N[C@@H](CCCCN)C(=O)N[C@@H](CCCNC(=N)N)C(=O)O [IQ^Y1649A]	–
weaker binding	–	–	CC[C@H](C)[C@H](NC(=O)[C@H](CC(C)C)NC(=O)[C@H](Cc1ccccc1)NC(=O)[C@@H](NC(=O)[C@H](C)NC(=O)[C@H](Cc1ccc(O)cc1)NC(=O)[C@H](Cc1ccccc1)NC(=O)[C@H](CCCCN)NC(=O)CNC(=O)[C@@H](NC(=O)[C@@H](N)[C@@H](C)O)C(C)C)[C@@H](C)O)C(=O)N[C@@H](CCC(N)=O)C(=O)N[C@@H](CCC(=O)O)C(=O)N[C@@H](CC(=O)O)C(=O)N[C@@H](Cc1ccccc1)C(=O)N[C@@H](CCCNC(=N)N)C(=O)N[C@@H](CCCCN)C(=O)N[C@@H](Cc1ccccc1)C(=O)N[C@@H](CCCCN)C(=O)N[C@@H](CCCCN)C(=O)N[C@@H](CCCNC(=N)N)C(=O)O [IQ^Y1657D]	–
